Assay results as given in ChEMBL document CHEMBL1201862, “PubChem BioAssay data set” (2004).
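Grown in 96-well plates, cells were treated for 48 hours with each compound at five concentrations. Insufficient inhibition: endpoint recorded as highest concentration tested. GI50 = concentration required for 50% inhibition of growth.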 Active and inactive are the calls of the source. No stated cut-off is given here; in the data, active = GI50 up to about 1.1 µM and inactive = higher.

Legend:
Assay in all cases: NCI tumour cell line growth inhibition, 48 h
786-0 = tested on: 786-0
A498 = tested on: A498
A549 = tested on: A549
ACHN = tested on: ACHN
CAKI-1 = tested on: CAKI-1
CCRF-CEM = tested on: CCRF-CEM
COLO 205 = tested on: COLO 205
DU-145 = tested on: DU-145
EKVX = tested on: EKVX
HCC 2998 = tested on: HCC 2998
HCT-116 = tested on: HCT-116
HCT-15 = tested on: HCT-15
HL-60 = tested on: HL-60
HOP-62 = tested on: HOP-62
HOP-92 = tested on: HOP-92
HT-29 = tested on: HT-29
Hs-578T = tested on: Hs-578T
IGROV-1 = tested on: IGROV-1
K562 = tested on: K562
KM12 = tested on: KM12
LOX IMVI = tested on: LOX IMVI
M14 = tested on: M14
MCF7 = tested on: MCF7
MDA-MB-231 = tested on: MDA-MB-231
MDA-MB-435 = tested on: MDA-MB-435
MDA-N = tested on: MDA-N
MOLT-4 = tested on: MOLT-4
Malme-3M = tested on: Malme-3M
NCI-H226 = tested on: NCI-H226
NCI-H23 = tested on: NCI-H23
NCI-H460 = tested on: NCI-H460
NCI-H522 = tested on: NCI-H522
NCI/ADR-RES = tested on: NCI/ADR-RES
OVCAR-3 = tested on: OVCAR-3
OVCAR-4 = tested on: OVCAR-4
OVCAR-5 = tested on: OVCAR-5
OVCAR-8 = tested on: OVCAR-8
PC-3 = tested on: PC-3
RPMI-8226 = tested on: RPMI-8226
RXF 393 = tested on: RXF 393
SF-268 = tested on: SF-268
SF-295 = tested on: SF-295
SF-539 = tested on: SF-539
SK-MEL-28 = tested on: SK-MEL-28
SK-MEL-2 = tested on: SK-MEL-2
SK-MEL-5 = tested on: SK-MEL-5
SK-OV-3 = tested on: SK-OV-3
SN12C = tested on: SN12C
SNB-19 = tested on: SNB-19
SNB-75 = tested on: SNB-75
SR = tested on: SR
SW-620 = tested on: SW-620
T47D = tested on: T47D
TK-10 = tested on: TK-10
U-251 = tested on: U-251
UACC-257 = tested on: UACC-257
UO-31 = tested on: UO-31
BT-549 = tested on: BT-549
UACC-62 = tested on: UACC-62

Measured: GI50

CCc1cc2c(cc1CCCC(=O)O)CC1(Cc3ccc(C(=O)O)cc3C1)C2 (configuration not stated)
> 100 µM: HCT-15
inactive: 786-0 > 100 µM | A498 > 100 µM | A549 > 100 µM | ACHN > 100 µM | CAKI-1 > 100 µM | CCRF-CEM > 100 µM | COLO 205 > 100 µM | DU-145 > 100 µM | EKVX > 100 µM | HCC 2998 > 100 µM | HCT-116 > 100 µM | HL-60 > 100 µM | HOP-62 > 100 µM | HOP-92 > 100 µM | HT-29 > 100 µM | Hs-578T > 100 µM | IGROV-1 > 100 µM | K562 > 100 µM | KM12 > 100 µM | LOX IMVI > 100 µM | M14 > 100 µM | MCF7 > 100 µM | MDA-MB-231 > 100 µM | MDA-MB-435 > 100 µM | MDA-N > 100 µM | MOLT-4 > 100 µM | Malme-3M > 100 µM | NCI-H226 > 100 µM | NCI-H23 > 100 µM | NCI-H460 > 100 µM | NCI-H522 > 100 µM | NCI/ADR-RES > 100 µM | OVCAR-3 > 100 µM | OVCAR-4 > 100 µM | OVCAR-5 > 100 µM | OVCAR-8 > 100 µM | PC-3 > 100 µM | RPMI-8226 > 100 µM | RXF 393 > 100 µM | SF-268 > 100 µM | SF-295 > 100 µM | SF-539 > 100 µM | SK-MEL-28 > 100 µM | SK-MEL-2 > 100 µM | SK-MEL-5 > 100 µM | SK-OV-3 > 100 µM | SN12C > 100 µM | SNB-19 > 100 µM | SNB-75 > 100 µM | SR > 100 µM | SW-620 > 100 µM | T47D > 100 µM | TK-10 > 100 µM | U-251 > 100 µM | UACC-257 > 100 µM | UO-31 > 100 µM

CN(C)C1C(=O)C(C(N)=O)=C(O)C2(O)C(O)=C3C(=O)c4c(O)cccc4C(C)(O)C3CC12 (configuration not stated)
81.1 µM: HCT-15
inactive: A498 52.2 µM | A549 86.1 µM | BT-549 64 µM | CAKI-1 62.4 µM | DU-145 > 100 µM | EKVX > 100 µM | Hs-578T 63.4 µM | IGROV-1 93.3 µM | KM12 > 100 µM | LOX IMVI 59 µM | MCF7 > 100 µM | Malme-3M 86.1 µM | NCI-H522 86.7 µM | PC-3 76.7 µM | RPMI-8226 81.7 µM | RXF 393 66.5 µM | SK-OV-3 55.6 µM | T47D > 100 µM | TK-10 > 100 µM

COc1cccc(N2C(=O)C3c4[nH]c5ccc(C)cc5c4C4CCC(C(C)(C)C)CC4C3C2=O)c1 (configuration not stated)
inactive: A498 > 10 µM | A549 3.38 µM | ACHN > 10 µM | CAKI-1 9.84 µM | CCRF-CEM 2.77 µM | COLO 205 7.16 µM | DU-145 > 10 µM | EKVX 4.84 µM | HCC 2998 4.11 µM | HCT-116 2.17 µM | HL-60 1.95 µM | HOP-62 > 10 µM | HT-29 4.08 µM | Hs-578T 3.19 µM | IGROV-1 > 10 µM | K562 2.65 µM | KM12 3.52 µM | LOX IMVI 2.43 µM | M14 8 µM | MCF7 2.99 µM | MDA-MB-231 5.48 µM | MDA-MB-435 > 10 µM | MDA-N > 10 µM | MOLT-4 1.97 µM | Malme-3M > 10 µM | NCI-H226 3.01 µM | NCI-H23 2.24 µM | NCI-H460 2.21 µM | NCI-H522 1.87 µM | NCI/ADR-RES 3.51 µM | OVCAR-3 5.46 µM | OVCAR-4 6.27 µM | OVCAR-5 3.3 µM | OVCAR-8 2.58 µM | PC-3 4.43 µM | RPMI-8226 4.06 µM | RXF 393 3.8 µM | SF-268 4.73 µM | SF-295 > 10 µM | SF-539 2.86 µM | SK-MEL-28 4.61 µM | SK-MEL-2 > 10 µM | SK-MEL-5 7.67 µM | SK-OV-3 > 10 µM | SN12C 3.15 µM | SNB-19 > 10 µM | SNB-75 2.51 µM | SR 2 µM | SW-620 3.88 µM | T47D 7.28 µM | TK-10 > 10 µM | U-251 3.52 µM | UACC-62 > 10 µM | UO-31 2.8 µM
6.35 µM: HCT-15
